Reference: patent publication US6624154B1, “Compositions and methods for treatment of hyperproliferative diseases” (Bristol-Myers Squibb Company, priority 1999, dated 2003)

Legend:
[1] = system: NB4 cells; experiment: NB4 cell maturation (morphology, NBT reduction, CD11c integrin expression); assay type: cell-based, human; conditions: for Induction of NB4 cell maturation/differentiation, agent alone: ATRA 1 μM, other agonists 0.2 μM, 8CPT-cAMP 100 μM, 72 h (NBT, morphology), 48 h (CD11c); for NB4 cell maturation in presence of 8CPT-cAMP: co-treatment with PKA agonist 8CPT-cAMP 100 μM
Description: Morphological features of NB4 cells in response to treatments (after 72 h). […] Nitroblue tetrazolium enzymatic reduction in retinoid-treated NB4 cells (after 72 h; percent of positive cells).
Cells and cultures. […] Essentially, cultures were established with log phase growing cells at concentration (10^5 ocell per ml) allowing exponential growth of untreated control cultures over 3 days without medium replenishment. […] Cultures were light-protected.
Morphological and functional cell maturation analysis. Cell morphology was analyzed after May-Grünwald staining. […] Morphology analysis and NBT reaction were performed after 72 h of treatment. At least 300 cells were analyzed for each treated culture.
Flow cytometry analysis of CD11c cell surface integrin. […] Briefly, after incubation (48 h), cells were washed in PBS and labeled with an anti-human CD11c FITC mouse monoclonal antibody (Becton-Dickinson). Cells were then washed twice in PBS and fixed in 1% paraformaldehyde/PBS solution. Cells were analyzed using a COULTER flow-cytometer.

[2] = system: NB4 cells; experiment: Cytokine expression in NB4 cells by RNAse protection assay; assay type: cell-based, human; conditions: for G-CSF expression: agent alone, 0, 24, 48 h
Description: (§1) Modulation of cytokine expression in NB4 cells was assessed by RNAse protection assays. […] For comparison the effect of vitamin D3 (“D3”) was studied also. […] The intact probes run on the same gel are shown on the left (L32 and GAPDH are the invariant internal controls used for calibration) and the positions of the protected fragments are indicated. […] Only the positions of the protected fragments are shown.
(§2) RPA analysis. Total RNA was extracted with the Trizol reagent (Gibco BRL). The ribonuclease protection assay was performed according to the supplier's instructions (Pharmingen, San Diego, Calif.). […] RNA (4 μg) and 6×10^5 cpm of labeled probes were used for hybridization. After RNAse treatments, the protected probes were resolved on a 5% urea-polyacrylamide-bis-acrylamide gel.

[3] = system: NB4-R2 cells; experiment: Cytokine expression in NB4-R2 cells by RNAse protection assay; assay type: cell-based, human
Description: as §1, §2

[4] = system: T47D; experiment: Lipid accumulation (Nile Red staining) in T47D breast cancer cells; assay type: cell-based, human; conditions: 7 days; for Increase of differentiation by addition of CPT-cAMP over RXR ligand alone: 1 μM RXR ligand plus 100 μM 8CPT-cAMP; for EC50: RXR compound alone, Nile Red
Description: Staining Solution: Stock Solution (1 mg Nile red and 1 ml acetone were mixed thoroughly and stored, chilled and protected from light).
Staining. For Fluorescence Microscope, a drop of dye-glycerol solution was added to a slide and covered with a glass coverslip. After 5 minutes, the slide was viewed by fluorescence microscope, Excitation 450-500 nm, Emission>528 nm. For Flow Cytofluorometry, the medium was aspirated off from cells and washed with PBS two times (serum in the medium drained the dye out of the cells). Then the cells were trypsinized and washed with PBS to get rid of trypsin. The cells were spun down and resuspended in 1 ml PBS (1-2×10^6/ml). The stock dye was added directly to the cells suspension in PBS with 1:100 dilution, and incubated at room temperature for a minimal of 5 minutes, and the samples were analyzed immediately. For Fluorescence Spectra, the medium was removed from 96-well plates and the cells were washed once with PBS. […] Diluted dye in PBS (1:100 from stock) was added to the cells, incubated for 5 minutes, and the plate was read at Excitation 488nm with a 2-nm slit width, emission at 540 nm with a 20-nm slit width.
Cells. Breast cancer cell line T47D was obtained from American Type Culture Collection, Manassas, Va.

[5] = molecular target: T1, RARα-RXRα heterodimer (Homo sapiens, UniProt P10276+P19793); experiment: Transient transfection, RARα-RXRα heterodimer activity on DR5-tk-CAT reporter
T1 sequence (P10276 1-462): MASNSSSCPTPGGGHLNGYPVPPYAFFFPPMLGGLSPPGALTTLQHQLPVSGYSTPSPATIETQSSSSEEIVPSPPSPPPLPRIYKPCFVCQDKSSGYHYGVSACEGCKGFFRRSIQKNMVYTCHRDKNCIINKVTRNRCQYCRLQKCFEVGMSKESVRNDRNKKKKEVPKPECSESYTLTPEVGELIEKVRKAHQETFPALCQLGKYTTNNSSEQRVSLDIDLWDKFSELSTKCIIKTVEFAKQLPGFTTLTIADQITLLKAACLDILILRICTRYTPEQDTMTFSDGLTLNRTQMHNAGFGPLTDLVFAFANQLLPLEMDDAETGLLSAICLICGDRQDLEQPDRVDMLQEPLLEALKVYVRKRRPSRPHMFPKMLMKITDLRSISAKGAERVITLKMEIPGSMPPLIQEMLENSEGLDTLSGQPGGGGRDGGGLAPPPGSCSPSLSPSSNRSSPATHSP
T1 sequence (P19793 1-462): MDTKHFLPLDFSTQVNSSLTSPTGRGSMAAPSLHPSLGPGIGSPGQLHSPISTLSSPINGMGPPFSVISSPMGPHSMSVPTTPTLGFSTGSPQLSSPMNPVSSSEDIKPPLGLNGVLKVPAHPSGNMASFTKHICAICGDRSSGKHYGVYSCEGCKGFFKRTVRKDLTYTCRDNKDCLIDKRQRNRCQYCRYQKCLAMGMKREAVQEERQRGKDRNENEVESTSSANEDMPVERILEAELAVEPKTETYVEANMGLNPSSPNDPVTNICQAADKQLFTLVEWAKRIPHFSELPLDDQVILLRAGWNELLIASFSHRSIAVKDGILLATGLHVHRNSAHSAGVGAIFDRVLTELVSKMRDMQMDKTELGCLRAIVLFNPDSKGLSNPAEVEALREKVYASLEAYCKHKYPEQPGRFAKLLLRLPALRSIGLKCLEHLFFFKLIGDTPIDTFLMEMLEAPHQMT

Which results are given for `CC1=C(/C=C/C(C)=C/C=C/C(C)=C/C(=O)O)C(C)(C)CCC1` [ATRA, all-trans retinoic acid]?
Induction of NB4 cell maturation/differentiation, agent alone [1]: induce maturation; IL8 and MCPI expression ([2]; agent alone): induced; M-CSF and IP10 expression ([2]; agent alone): induced; G-CSF expression [2]: incapable of stimulating G-CSF expression; IP 10, MCP1 or M-CSF expression in resistant cells [3]: unable to induce

What does the source list for `Nc1ncnc2c1nc(Sc1ccc(Cl)cc1)n2[C@@H]1O[C@@H]2COP(=O)([O-])O[C@H]2[C@H]1O.[Na+]` [Compound 8CPT-cAMP, 8-(4-Chlorophenylthio)-adenosine-3′,5′-cyclic monophosphate, sodium salt]?
Lipid accumulation/differentiation, CPT-cAMP alone ([4]; 100 μM): No effect; Induction of NB4 cell maturation/differentiation, agent alone [1]: did not exhibit any differentiating activity

What does the source list for `CC1(C)C(=O)C(C)(C)c2cc(C(=O)Nc3ccc(C(=O)O)cc3)ccc21` [Compound I, 4-[[(2,3-Dihydro-1,1,3,3-tetramethyl-2-oxo-1H-inden-5-yl)carbonyl]amino]benzoic acid]?
Induction of NB4 cell maturation/differentiation, agent alone [1]: induce maturation; Growth of NB4 cells ([1]; agent alone): growth inhibited

With `CC1(C)CC=C(c2cnc3ccccc3c2)c2cc(C(=O)Nc3ccc(C(=O)O)cc3)ccc21` [Compound II] as the compound, how does the “Effect on Compound I-induced differentiation” value ([1]; NB4 cells, antagonist 2 μM) read?
The value was “abrogated”.

And the “Effect on maturation induced by 9-cis RA” value ([1]; NB4 cells, antagonist 2 μM)?
The value was “decreased dramatically”.

What about the “Inhibition of NB4 maturation induced by SR11237 plus 8CPT-cAMP” value ([1]; antagonist 2 μM) of the same compound?
The value was “not inhibited”.

Which results are given for `C=C(c1ccc(C(=O)O)cc1)c1cc2c(cc1C)C(C)(C)CC=C2C(C)C` [Compound V, 4-[1-[5,6-Dihydro-3,5,5-trimethyl-8-(1-methylethyl)-2-naphthalenyl]ethenyl]benzoic acid]?
Induction of NB4 cell maturation/differentiation, agent alone [1]: did not exert any differentiative effect; NB4 cell maturation in presence of 8CPT-cAMP [1]: induced maturation with a potency similar to 9-cis RA; Activity with RAR-RXR heterodimers on a DR5-based reporter ([5]; agent alone): nearly inactive; Effect on ATRA-induced transactivation of DR5-based reporter ([5]; with ATRA): synergized with

Which results are given for `CC1(C)CC=C(c2ccc(-c3ccccc3)cc2)c2cc(/C=C/c3ccc(C(=O)O)cc3)ccc21` [Compound VI]?
Effect on Compound I-induced differentiation ([1]; NB4 cells, antagonist 2 μM): abrogated; Inhibition of NB4 maturation induced by SR11237 plus 8CPT-cAMP ([1]; antagonist 2 μM): not inhibited

`CN1c2ccc([N+](=O)[O-])cc2N=C(c2ccc(C(=O)O)cc2)c2cc3c(cc21)C(C)(C)CCC3(C)C` [HX531] was tested. Which “NB4 cell maturation in presence of 8CPT-cAMP” value [1] did it give?
Its value is “No crosstalk”.

With `CC1(C)CCC(C)(C)c2cc(C3(c4ccc(C(=O)O)cc4)OCCO3)ccc21` [SR11237] as the compound, how does the “Increase of differentiation by addition of CPT-cAMP over RXR ligand alone” value [4] read?
The value was 20%.

And the EC50 [4]?
Its EC50 is 110 nM.

What about the “Induction of NB4 cell maturation/differentiation, agent alone” value [1] of the same compound?
Its value is “completely inactive”.

And the “NB4 cell maturation in presence of 8CPT-cAMP” value [1]?
Its value is “induced full maturation”.

And the “Transactivation of DR5-based reporter by coexpressed RAR and RXR in presence of the PKA agonist” value ([5]; with 8CPT-cAMP)?
The value was “did not observe any SR11237-induced transactivation”.

And the “Factor of synergy, G-CSF expression” value ([2]; SR11237 with 8CPT-cAMP)?
The value was > 50 fold.

What about the G-CSF expression [2] of the same compound?
Its G-CSF expression is “does not affect G-CSF expression”.

And the “SCF, IL8 and MCPI expression” value ([2]; agent on its own)?
The value was “induced”.

For `C=C(c1ccc(C(=O)O)cc1)c1cc2c(cc1C)C(C)(C)CCC2(C)C` [bexarotene], which “Increase of differentiation by addition of CPT-cAMP over RXR ligand alone” value [4] is on record?
Its value is 20%.

And the EC50 ([4]; Homo sapiens, T47D, 168 h)?
The EC50 was 62 nM.

Which results are given for `C=C1CC[C@H](O)C/C1=C/C=C1\CCC[C@]2(C)[C@@H]([C@H](C)CCCC(C)C)CC[C@@H]12` [vitamin D3]?
Induction of NB4 cell maturation/differentiation, agent alone [1]: inactive on its own; NB4 cell maturation in presence of 8CPT-cAMP [1]: moderate granulocytic maturation; Granulocytic maturation relative to the effect of SR11237 in presence of the PKA agonist ([1]; uM concentration, with 8CPT-cAMP): less than 20%
